This is an account of results in PubChem BioAssay AID1259407 (Chemical Carcinogenesis Research Information System (CCRIS), 2018).

The test system of this data set is CCRIS mutagenicity, Ames/micronucleus/aberration tests. Kind of data set: CCRIS mutagenicity studies.
The mark [1] stands for this setting: Test System: AMES SALMONELLA TYPHIMURIUM, Strain/Indicator: TA98, Metabolic Activation: NONE, Method: STANDARD PLATE.
[2] abbreviates: Test System: AMES SALMONELLA TYPHIMURIUM, Strain/Indicator: TA100, Metabolic Activation: NONE, Method: STANDARD PLATE.
Setting [3] is: Test System: AMES SALMONELLA TYPHIMURIUM, Strain/Indicator: TA1538, Metabolic Activation: NONE, Method: STANDARD PLATE.

SMILES strings stand for the structures. Calls of active or inactive are those of the source. The rule behind the calls is not given here.

In the case of `Cc1cc(N=Nc2ccccc2C)ccc1N`, the mutagenic call was “active; positive” (Test System: AMES SALMONELLA TYPHIMURIUM, Strain/Indicator: TA98, Metabolic Activation: HAMSTER, LIVER, S-9, AROCLOR 1254, Method: STANDARD PLATE); “active; positive” (Test System: AMES SALMONELLA TYPHIMURIUM, Strain/Indicator: TA98, Metabolic Activation: HAMSTER, LIVER, S-9, Method: PREINCUBATION (PRIVAL METHOD)); “inactive; negative” (Test System: AMES SALMONELLA TYPHIMURIUM, Strain/Indicator: TA98, Metabolic Activation: NONE, Method: PREINCUBATION); “inactive; negative” under setting [1]; “active; positive” (Test System: AMES SALMONELLA TYPHIMURIUM, Strain/Indicator: TA98, Metabolic Activation: RAT LIVER S-9, Method: PREINCUBATION); “inactive; negative” (Test System: AMES SALMONELLA TYPHIMURIUM, Strain/Indicator: TA98, Metabolic Activation: RAT LIVER, CYTOSOL, AROCLOR 1254, Method: PREINCUBATION). Besides, the mutagenic call is “active; positive” (Test System: AMES SALMONELLA TYPHIMURIUM, Strain/Indicator: TA98, Metabolic Activation: RAT LIVER, MICROSOMES, AROCLOR 1254, Method: PREINCUBATION); “active; positive” (Test System: AMES SALMONELLA TYPHIMURIUM, Strain/Indicator: TA98, Metabolic Activation: RAT, LIVER, MICROSOMES, AROCLOR 1254, Method: PREINCUBATION); “inactive; negative” (Test System: AMES SALMONELLA TYPHIMURIUM, Strain/Indicator: TA98, Metabolic Activation: RAT, LIVER, MICROSOMES, O-AMINOAZOTOLUENE, Method: PREINCUBATION); “inactive; negative” (Test System: AMES SALMONELLA TYPHIMURIUM, Strain/Indicator: TA98, Metabolic Activation: RAT, LIVER, MICROSOMES, Method: PREINCUBATION); “active; positive” (Test System: AMES SALMONELLA TYPHIMURIUM, Strain/Indicator: TA98, Metabolic Activation: RAT, LIVER, S-9, AROCLOR 1254, HAMSTER, LIVER, S-9, AROCLOR 1254, Method: STANDARD PLATE); “active; positive” (Test System: AMES SALMONELLA TYPHIMURIUM, Strain/Indicator: TA98, Metabolic Activation: RAT, LIVER, S-9, AROCLOR 1254, Method: STANDARD PLATE). In addition, the mutagenic call (Test System: AMES SALMONELLA TYPHIMURIUM, Strain/Indicator: TA98, Metabolic Activation: RAT, LIVER, S-9, KC500 OR PHENOBARBITAL, Method: LIQUID SUSPENSION) is “active; positive”; the mutagenic call (Test System: AMES SALMONELLA TYPHIMURIUM, Strain/Indicator: TA98, Metabolic Activation: RAT, LIVER, S-9, PCB, Method: PREINCUBATION) is “active; positive”; the mutagenic call (Test System: AMES SALMONELLA TYPHIMURIUM, Strain/Indicator: TA98, Metabolic Activation: RAT, LIVER, S-9, POLYCHLORINATED BIPHENYLS, Method: PREINCUBATION) is “active; positive”; the mutagenic call (Test System: AMES SALMONELLA TYPHIMURIUM, Strain/Indicator: TA100, Metabolic Activation: HAMSTER, LIVER, S-9, AROCLOR 1254, Method: STANDARD PLATE) is “active; positive”; the mutagenic call (Test System: AMES SALMONELLA TYPHIMURIUM, Strain/Indicator: TA100, Metabolic Activation: HAMSTER, LIVER, S-9, Method: PREINCUBATION (PRIVAL METHOD)) is “active; positive”; the mutagenic call (Test System: AMES SALMONELLA TYPHIMURIUM, Strain/Indicator: TA100, Metabolic Activation: NONE, Method: PREINCUBATION) was “inactive; negative”. The mutagenic call under setting [2] is “inactive; negative”; the mutagenic call (Test System: AMES SALMONELLA TYPHIMURIUM, Strain/Indicator: TA100, Metabolic Activation: RAT LIVER S-9, Method: PREINCUBATION) was “active; positive”; the mutagenic call (Test System: AMES SALMONELLA TYPHIMURIUM, Strain/Indicator: TA100, Metabolic Activation: RAT, LIVER, S-9, AROCLOR 1254, HAMSTER, LIVER, S-9, AROCLOR 1254, Method: STANDARD PLATE) is “active; positive”; the mutagenic call (Test System: AMES SALMONELLA TYPHIMURIUM, Strain/Indicator: TA100, Metabolic Activation: RAT, LIVER, S-9, AROCLOR 1254, Method: STANDARD PLATE) was “active; positive”; the mutagenic call (Test System: AMES SALMONELLA TYPHIMURIUM, Strain/Indicator: TA100, Metabolic Activation: RAT, LIVER, S-9, KC500 OR PHENOBARBITAL, Method: LIQUID SUSPENSION) was “active; positive”; the mutagenic call (Test System: AMES SALMONELLA TYPHIMURIUM, Strain/Indicator: TA100, Metabolic Activation: RAT, LIVER, S-9, PCB, Method: PREINCUBATION) was “active; positive”. Moreover, the mutagenic call was “active; positive” (Test System: AMES SALMONELLA TYPHIMURIUM, Strain/Indicator: TA100, Metabolic Activation: RAT, LIVER, S-9, POLYCHLORINATED BIPHENYLS, Method: PREINCUBATION); “inactive; negative” under setting [3]; “active; positive” (Test System: AMES SALMONELLA TYPHIMURIUM, Strain/Indicator: TA1538, Metabolic Activation: RAT, LIVER, S-9, AROCLOR 1254, HAMSTER, LIVER, S-9, AROCLOR 1254, Method: STANDARD PLATE); “active; positive” (Test System: AMES SALMONELLA TYPHIMURIUM, Strain/Indicator: TA1538, Metabolic Activation: RAT, LIVER, S-9, AROCLOR 1254, Method: STANDARD PLATE); “active; positive. reevaluation of results: positive” (Test System: MOUSE LYMPHOMA, Strain/Indicator: L5178Y (TK+/TK-), Metabolic Activation: RAT, LIVER, S-9, AROCLOR 1254, Method: SUSPENSION/PLATE); “inactive; negative” (Test System: Mouse lymphoma, Strain/Indicator: L5178Y (tk+/tk-), Metabolic Activation: None, Method: Suspension/plate).

In the case of `Nc1cc2ccccc2cc1N`, the mutagenic call was “active; positive” (Test System: AMES SALMONELLA TYPHIMURIUM, Strain/Indicator: TA98, Metabolic Activation: RAT LIVER CYTOSOL, AROCLOR 1254, Method: STANDARD PLATE) and “active; positive” (Test System: AMES SALMONELLA TYPHIMURIUM, Strain/Indicator: TA98, Metabolic Activation: RAT LIVER MICROSOMES, AROCLOR 1254, Method: STANDARD PLATE).

Take `C[Si](C)(C)O[Si](C)(C)C`: the mutagenic call was “inactive; negative” under setting [1]; “inactive; negative” (Test System: AMES SALMONELLA TYPHIMURIUM, Strain/Indicator: TA98, Metabolic Activation: RAT LIVER S-9, AROCLOR 1254, Method: STANDARD PLATE); “inactive; negative” under setting [2]; “inactive; negative” (Test System: AMES SALMONELLA TYPHIMURIUM, Strain/Indicator: TA100, Metabolic Activation: RAT LIVER S-9, AROCLOR 1254, Method: STANDARD PLATE); “inactive; negative” (Test System: AMES SALMONELLA TYPHIMURIUM, Strain/Indicator: TA1535, Metabolic Activation: NONE, Method: STANDARD PLATE); “inactive; negative” (Test System: AMES SALMONELLA TYPHIMURIUM, Strain/Indicator: TA1535, Metabolic Activation: RAT LIVER S-9, AROCLOR 1254, Method: STANDARD PLATE). The mutagenic call (Test System: AMES SALMONELLA TYPHIMURIUM, Strain/Indicator: TA1537, Metabolic Activation: NONE, Method: STANDARD PLATE) was “inactive; negative”; the mutagenic call (Test System: AMES SALMONELLA TYPHIMURIUM, Strain/Indicator: TA1537, Metabolic Activation: RAT LIVER S-9, AROCLOR 1254, Method: STANDARD PLATE) is “inactive; negative”; the mutagenic call under setting [3] is “inactive; negative”; the mutagenic call (Test System: AMES SALMONELLA TYPHIMURIUM, Strain/Indicator: TA1538, Metabolic Activation: RAT LIVER S-9, AROCLOR 1254, Method: STANDARD PLATE) is “inactive; negative”; the mutagenic call (Test System: E. COLI, Strain/Indicator: P3078 POLA, Metabolic Activation: NONE, Method: SPOT TEST) was “inactive; negative”; the mutagenic call (Test System: E. COLI, Strain/Indicator: P3078 POLA, Metabolic Activation: RAT LIVER S-9, AROCLOR 1254, Method: SPOT TEST) is “inactive; negative”. Further, the mutagenic call runs as follows: (Test System: E. COLI, Strain/Indicator: W3110, Metabolic Activation: NONE, Method: SPOT TEST) “inactive; negative”; (Test System: E. COLI, Strain/Indicator: W3110, Metabolic Activation: RAT LIVER S-9, AROCLOR 1254, Method: SPOT TEST) “inactive; negative”; (Test System: MOUSE LYMPHOMA, Strain/Indicator: L5178Y (TK+/TK-), Metabolic Activation: NONE, Method: SUSPENSION/PLATE) “inactive; negative”; (Test System: MOUSE LYMPHOMA, Strain/Indicator: L5178Y (TK+/TK-), Metabolic Activation: RAT, LIVER, S-9, Method: SUSPENSION/PLATE) “inactive; negative”.
